Assay results from patent US8883793B2, “Tubulin inhibitors and methods of using the same” (Development Center for Biotechnology, priority 2010, dated 2014).

Experiments:
[1] = system: KB cell; assay: MTS assay, growth inhibition of KB cells; format: cell-based; settings: Homo sapiens, at 10 μM concentration, incubated for 72 h, read-out: Inhibition rate (%) (growth inhibition rate of MTS assay)
Protocol: MTS assay was performed in determining the growth inhibition of cancer cells. MTS ((3-(4,5-dimethylthiazol-2-yl)-5-(3-carboxymethoxyphenyl)-2-(4-sulfophenyl)-2H-tetrazolium)), in the presence of phenazine methosulfate (PMS) and reductases, produces a formazan product that has an absorbance maximum at 490-500 nm. MTS assays (and closely related MTT assay) are commonly used to measure cell viabilities or survivals.
Briefly, KB/Hela, NCI-H460, A375, Colo205, HCT-116, U937, MCF-7, MDA-MB-231, A549, H1975 cells were seeded into 96-well plate at 4000, 4000, 2000, 2000, 2000 cells/well. After 24 h for attachment, test compound was added into each well and incubated for 72 h. A total of 20 μl of MTS reaction reagent containing the MTS (Promega, Madison, Wis.) and PMS in a ratio of 20:1 was added into each well to react with dehydrogenase enzyme in survival cells. After 3 h, the absorbance at 490 nm was monitored using Emax precision microplate reader (Molecular Devices, Sunnyvale, Calif.).
The growth inhibition rate of MTS assay at KB cell of these compounds (at 10 μM concentration) are list in Table 5.

[2] = system: porcine brain tubulin; assay: Tubulin polymerization assay; format: biochemical; settings: at 10 μM concentration
Protocol: In vitro tubulin polymerization assay was performed by using the Tubulin Polymerization Assay Kit (Cytoskeleton, Inc., Denver, Colo.) in a 96-well format, which used the polymerization of porcine brain tubulin in vitro in the presence of varying concentrations of the test compounds. Fluorescence measurements were obtained at 1-minute intervals over a 31-minute period. Fluorescent measurements were performed using excitation at 365 nm, and emission was measured at 440 nm using a Packard Fusion Alpha Microplate Analyzer. Data were analyzed as relative fluorescent units by GraphPad Prism 5 Demo.

[3] = system: biotinylated tubulin; assay: Colchicine competitive-binding assay; settings: at 10 μM concentration, 3H-colchicine; for binding rate (%) (colchicine competitive-binding): left column pair of Table 7; for Inhibition rate (%) (colchicine competitive-binding): right column pair of Table 7
Protocol: The colchicine competitive-binding assay was done by using the Colchicine Site competitive Assay Kit (Cytoskeleton, Inc.), streptavidin-coated yttrium SPA beads(GE Healthcare, Inc.), and ^3H-colchicine(PerkinElmer, Inc.). Briefly, the binding mixture includes 1 μL^3H-labeled ligand (specific activity […]), and 1 μg biotinylated tubulin and 88 μg SPA beads in 200 μL assay buffer. The test compound and ^3H-labeled ligand were added before tubulin. After incubation at 37° C. for 2 hours, the SPA beads were allowed to settle down for 24 hours at room temperature, and scintillation counting was done on the TopCount Microplate Scintillation Counter.

Row | binding rate (%) (colchicine competitive-binding) [3] | Inhibition rate (%) (colchicine competitive-binding) [3] | Compound | inhibition at 10 µM [1] [%] | Inhibition rate (%) of tubulin polymerization [2] [%]
1 | 77.5 | – | COc1ccc(Cc2cnc(NC(=O)CCc3ccccc3)s2)cc1 [Compound 9, N-[5-(4-Methoxy-benzyl)-thiazol-2-yl]-3-phenyl-propionamide] | 96.1 | 79.0
2 | 88.6 | – | COc1ccc(Cc2cnc(NC(=O)CCc3cccnc3)s2)cc1 [Compound 10, N-[5-(4-Methoxy-benzyl)-thiazol-2-yl]-3-pyridin-3-yl-propionamide] | 94.4 | 88.7
3 | 76.9 | – | COc1ccc(Cc2cnc(NC(=O)CCc3cccnc3)s2)cc1OC [Compound 17, N-[5-(3,4-Dimethoxy-benzyl)-thiazol-2-yl]-3-pyridin-3-yl-propionamide] | 95.9 | 65.3
4 | 55.4 | – | O=C(CCc1ccccc1)Nc1ncc(Cc2ccc(C(F)(F)F)cc2)s1 [Compound 47, 3-Phenyl-N-[5-(4-trifluoromethyl-benzyl)-thiazol-2-yl]-propionamide] | 94.5 | 57.2
5 | 75.4 | – | COc1ccc(Cc2cnc(NC(=O)CCc3ccccc3)s2)c(OC)c1OC [Compound 52, 3-Phenyl-N-[5-(2,3,4-trimethoxy-benzyl)-thiazol-2-yl]-propionamide] | 94.5 | 51.2
6 | 78.7 | – | COc1ccc(Cc2cnc(NC(=O)CCc3cccnc3)s2)c(OC)c1OC [Compound 53, 3-Pyridin-3-yl-N-[5-(2,3,4-trimethoxy-benzyl)-thiazol-2-yl]-propionamide] | 96.7 | 62.2
7 | 73.3 | – | COc1ccc(Cc2cnc(NC(=O)CCc3ccc(F)cc3)s2)c(OC)c1OC [Compound 54, 3-(4-Fluoro-phenyl)-N-[5-(2,3,4-trimethoxy-benzyl)-thiazol-2-yl]-propionamide] | 96.1 | –
8 | 68.8 | – | COc1ccc(Cc2cnc(NC(=O)CCc3ccc(-c4ccccc4)cc3)s2)c(OC)c1OC [Compound 55, 3-Biphenyl-4-yl-N-[5-(2,3,4-trimethoxy-benzyl)-thiazol-2-yl]-propionamide] | 95.1 | 54.9
9 | 88.3 | – | COc1ccc(Cc2cnc(NC(=O)CCc3ccc(C)o3)s2)c(OC)c1OC [Compound 56, 3-(5-Methyl-furan-2-yl)-N-[5-(2,3,4-trimethoxy-benzyl)-thiazol-2-yl]-propionamide] | 94.7 | –
10 | – | – | O=C(CCc1ccccc1)Nc1ncc(-c2ccc(F)cc2)s1 [Compound 58, N-[5-(4-Fluoro-phenyl)-thiazol-2-yl]-3-phenyl-propionamide] | 85.8 | 55.1
11 | 76.3 | – | Cc1nc(NC(=O)CCc2ccccc2)sc1-c1ccc(F)cc1 [Compound 59, N-[5-(4-Fluoro-phenyl)-4-methyl-thiazol-2-yl]-3-phenyl-propionamide] | 93.5 | –
12 | 64.6 | – | Cc1nc(NC(=O)CCc2ccccc2)sc1Cc1ccc2c(c1)OCO2 [Compound 60, N-(5-Benzo[1,3]dioxol-5-ylmethyl-4-methyl-thiazol-2-yl)-3-phenyl-propionamide] | 95.1 | –
13 | 57.9 | – | Cc1nc(NC(=O)CCc2ccc(F)cc2)sc1Cc1ccc2c(c1)OCO2 [Compound 61, N-(5-Benzo[1,3]dioxol-5-ylmethyl-4-methyl-thiazol-2-yl)-3-(4-fluoro-phenyl)-propionamide] | 90.9 | –
14 | 55.3 | – | Cc1nc(NC(=O)CCc2cccnc2)sc1Cc1ccc2c(c1)OCO2 [Compound 62, N-(5-Benzo[1,3]dioxol-5-ylmethyl-4-methyl-thiazol-2-yl)-3-pyridin-3-yl-propionamide] | 96 | –
15 | 63.3 | – | COc1cccc(CCC(=O)Nc2nc(C)c(Cc3ccc4c(c3)OCO4)s2)c1 [Compound 63, N-(5-Benzo[1,3]dioxol-5-ylmethyl-4-methyl-thiazol-2-yl)-3-(3-methoxy-phenyl)-propionamide] | 95.6 | –
16 | 54.4 | – | Cc1ccc(CCC(=O)Nc2ncc(Oc3ccc(F)cc3)s2)o1 [Compound 64, N-[5-(4-Fluoro-phenoxy)-thiazol-2-yl]-3-(5-methyl-furan-2-yl)-propionamide] | 95.9 | –
17 | 85.2 | – | COc1ccc(Sc2cnc(NC(=O)CCc3ccccc3)s2)cc1 [Compound 69, N-[5-(4-Methoxy-phenylsulfanyl)-thiazol-2-yl]-3-phenyl-propionamide] | 87.6 | 50.5
18 | 86.0 | – | COc1ccc(Sc2cnc(NC(=O)CCc3ccc(C)o3)s2)cc1 [Compound 71, N-[5-(4-Methoxy-phenylsulfanyl)-thiazol-2-yl]-3-(5-methyl-furan-2-yl)-propionamide] | 94.4 | 60.1
19 | – | 99.8 | Cc1ccc(CCC(=O)Nc2ccc(-n3ccnc3)cn2)o1 [Compound 77, N-(5-Imidazol-1-yl-pyridin-2-yl)-3-(5-methyl-furan-2-yl)-propionamide] | 87.3 | 60.8
20 | – | 90.0 | O=C(CCc1ccccc1)Nc1ccc(-n2ccc3ccccc32)cn1 [Compound 79, N-(5-Indol-1-yl-pyridin-2-yl)-3-phenyl-propionamide] | 73.7 | 53.2
21 | – | 70.0 | O=C(CCc1ccccc1)Nc1ccc(Sc2ccccc2)cn1 [Compound 81, 3-Phenyl-N-(5-phenylsulfanyl-pyridin-2-yl)-propionamide] | 95.1 | –
22 | – | 91.9 | COc1ccc(Sc2ccc(NC(=O)CCc3ccc(C)o3)nc2)cc1 [Compound 83, N-[5-(4-Methoxy-phenylsulfanyl)-pyridin-2-yl]-3-(5-methyl-furan-2-yl)-propionamide] | 95.2 | 64.7
23 | – | 54.6 | Cc1ccc(CCC(=O)Nc2ncc(-n3ccnc3)cc2C)o1 [Compound 87, N-(5-Imidazol-1-yl-3-methyl-pyridin-2-yl)-3-(5-methyl-furan-2-yl)-propionamide] | 93.9 | –
24 | – | 57.2 | O=C(/C=C/c1ccccc1)Nc1ncc(-c2ccccc2)cn1 [Compound 93, 3-Phenyl-N-(5-phenyl-pyrimidin-2-yl)-acrylamide] | 96 | –
25 | – | 57.5 | O=C(/C=C/c1ccccc1)Nc1ncc(-c2ccc(F)cc2)cn1 [Compound 98, N-[5-(4-Fluoro-phenyl)-pyrimidin-2-yl]-3-phenyl-acrylamide] | 81.9 | –
26 | – | 56.9 | COc1cccc(-c2cnc(NC(=O)/C=C/c3ccccc3)nc2)c1OC [Compound 101, N-[5-(2,3-Dimethoxy-phenyl)-pyrimidin-2-yl]-3-phenyl-acrylamide] | 97.5 | –
27 | – | 81.1 | Cc1ccc(CCC(=O)Nc2ncc(-c3cccc4ccccc34)cn2)o1 [Compound 103, 3-(5-Methyl-furan-2-yl)-N-(5-naphthalen-1-yl-pyrimidin-2-yl)-propionamide] | 94.1 | –
28 | – | 61.3 | O=C(CCc1ccccc1)Nc1ncc(-c2cccc3ccccc23)cn1 [Compound 104, N-(5-Naphthalen-1-yl-pyrimidin-2-yl)-3-phenyl-propionamide] | 96.6 | –
29 | – | 58.2 | Cc1cc(-c2ccc(N(C)C)cc2)cnc1NC(=O)CCc1ccccc1 [Compound 119, N-[5-(4-Dimethylamino-phenyl)-3-methyl-pyridin-2-yl]-3-phenyl-propionamide] | 95.1 | –
